Measurements as given in patent US20160082015A1, “METHODS, COMPOSITIONS AND KITS FOR PROMOTING MOTOR NEURON SURVIVAL AND TREATING AND DIAGNOSING NEURODEGENERATIVE DISORDERS” (PRESIDENT AND FELLOWS OF HARVARD COLLEGE, priority 2013, published 2016).

What was measured:
[1] = test system: SOD1^G93A/HB9::GFP MNs; assay: MN death induced by PI3K inhibitor LY294002; type: cell-based; details: 10 μM co-incubated with LY294002
Description: (§1) FIGS. 3A and 3B show line graphs showing effects of kenpaullone and GSK-3 inhibitor VIII on MN death induced by treatment with a PI3K inhibitor. LY294002 was added to cultures on day 4, with or without concurrent treatment with 10 μM kenpaullone or 10 μM GSK-3 inhibitor VIII. Cells were fixed on day 7 for survival analysis. Survival is measured with respect to cells treated with DMSO alone. FIG. 3C is a bar graph showing that Kenpaullone also blocks death of MNs accelerated by co-culture with SOD1^G93A astrocytes. Hb9:GFP MNs were FACS sorted and plated on a confluent monolayer of wild-type or SOD1^G93A astrocytes. Kenpaullone was added to cultures 24 hrs later and was refreshed every three days by replacing half of the old medium with fresh medium containing IX concentration of the compound. Cells were fixed after nine days of compound treatment and MN survival was determined. Trophic factors were present throughout the experiment. Data are presented as percent survival normalized to that of DMSO treated MNs plated on wild-type astrocytes. Again, kenpaullone was effective in decreasing the extent of death. * p<0.05, ** p<0.01, *** p<0.001 (Student's t test, two-tailed). Data are presented as mean±SEM.
(§2) The PI3K/Akt pathway is well known to regulate neuronal survival including that of MNs (Brunet et al., 2001; Barthélémy et al., 2004). […] The inventors sought to examine if either kenpaullone or a more specific GSK-3 inhibitor (Inhibitor VIII) could protect MNs from death caused by inactivation of PI3K/AKT. […] Thus kenpaullone's effects are not restricted to protection after trophic factor withdrawal.

[2] = test system: HB9::GFP MNs; assay: MN death induced by PI3K inhibitor LY294002; type: cell-based; details: 10 μM co-incubated with LY294002
Description: as §1, §2

[3] = test system: endogenous mouse SOD1 protein; assay: SOD1 protein levels by Western blotting; type: cell-based; details: HB9::GFP or SOD1^G93A/HB9::GFP cultures
Description: Since the additional death undergone by the SOD1^G93A/HB9::GFP MNs seems likely to relate to their expression of high levels of SOD1^G93A protein, one possibility is that kenpaullone could act in part by reducing those levels. Kenpaullone was added to cultures on day 4, and the levels of mutant SOD1^G93A protein were analyzed by Western blotting on day 21 (FIGS. 5A and 5B). […] The endogenous mouse SOD1 protein was not affected in either HB9::GFP or SOD1^G93A/HB9::GFP cultures (data not shown). In addition, the inventors discovered that kenpaullone had no effect on the levels of wild-type human SOD1 in cultures produced from an ESC line that overexpresses a wild-type human SOD1 transgene (wtSOD1/Hb9::GFP) (FIGS. SA mad SB). […] However, when the inventors used single cell confocal imaging to examine SOD1^G93A levels specifically in GFP^+ cells, it was clear that the SOD1^G93A levels in MNs were reduced, both in the presence and absence of trophic factors (FIG. 5C).

[4] = test system: SOD1^G93A protein; assay: SOD1 protein levels by Western blotting and single cell imaging; type: cell-based, human
Description: In FIG. 5A cultures grown for 21 days in the indicated conditions were analyzed for levels of human SOD1 protein. The antibody used was specific for human SOD1, as is seen by the lack of staining on wild-type mouse MNs (HB9::GFP). When analyzed on day 21, levels of mutant SOD1^G93A protein, but not wt SOD1 protein, were decreased when cells were treated with kenpaullone in the absence of trophic factors. When analyzed on day 21, SOD1^G93A protein, but not wt SOD1 protein, was decreased when cultures were treated with kenpaullone in the presence of trophic factors as well (FIG. 5B). […] By this analysis, again on day 21, the average amount of SOD1 per MN was decreased by kenpaullone treatment in both +TF and −TF conditions. Scale bar represents 50 μm (FIG. 5C). Data are presented as mean±SEM. * p<0.05, *** p<0.001 (Student's t test, two-tailed).
Immunostaining was carried out using standard protocols (Makhortova et al., 2011). […]
Since the additional death undergone by the SOD1^G93A/HB9::GFP MNs seems likely to relate to their expression of high levels of SOD1^G93A protein, one possibility is that kenpaullone could act in part by reducing those levels. Kenpaullone was added to cultures on day 4, and the levels of mutant SOD1^G93A protein were analyzed by Western blotting on day 21 (FIGS. 5A and 5B). […]

O=C1Cc2c([nH]c3ccc(Br)cc23)-c2ccccc2N1 [Kenpaullone]
protection from LY294002-induced MN death [1]: significantly attenuated
protection from LY294002-induced MN death [2]: significantly attenuated
endogenous mouse SOD1 protein [3]: not affected
levels of SOD1^G93A protein ([4]; added day 4, Western blotting day 21, with and without trophic factors): sharp decrease
mutant protein levels, untreated versus treated cultures ([4]; until sometime after 15 days of treatment): no differences
